Consider three compounds from patent US7146277B2, “NMR assisted design of high affinity ligands for structurally uncharacterized proteins” (priority 2000, dated 2006).

For assay [1], the target named is T1, mannose-binding protein (MBP) (Rattus norvegicus, UniProt P19999).
T1 construct: made in house; host or cells: E. coli JA221
Briefly: Binding of AMM to mannose-binding protein (previously determined binding constant, used for the bound fraction). The note with it: 1 mM MBP-A, 1 mM AMM; calculated from dissociation constant and concentrations. The text has this: Interpretation of residual dipolar contributions of a ligand in a protein-bound state will, in general, require separation of the contribution from the free state using known binding properties. The observed residual dipolar couplings measured in the AMM/MBP complex (Table 2, Dobs) will be a population weighted average from the free (Nfree) and bound (Nbound) states, such that: Dobs=NfreeDfree+NboundDbound (1) The fraction of AMM free and bound (Nfree and Nbound) can be calculated from the dissociation constant and known protein-ligand concentrations. Using a previously determined binding constant (approx. 1 mM) approximately 40% of AMM is in fact bound to MBP leaving approximately 60% of AMM free in solution. Order Tensor Calculation in AMM

Assay [2] addresses T1, mannose-binding protein (MBP). The note with it: AMM/MBP, previously determined; read-out: binding constant; cited from earlier work.
The target of assay [3] is T2, GnT-V (Homo sapiens, UniProt Q09328).
T2 construct: The soluble form of recombinant human GnT-V was expressed in CHO cells; made in house; host or cells: CHO cells
T2 sequence (Q09328 31-741 limits assumed): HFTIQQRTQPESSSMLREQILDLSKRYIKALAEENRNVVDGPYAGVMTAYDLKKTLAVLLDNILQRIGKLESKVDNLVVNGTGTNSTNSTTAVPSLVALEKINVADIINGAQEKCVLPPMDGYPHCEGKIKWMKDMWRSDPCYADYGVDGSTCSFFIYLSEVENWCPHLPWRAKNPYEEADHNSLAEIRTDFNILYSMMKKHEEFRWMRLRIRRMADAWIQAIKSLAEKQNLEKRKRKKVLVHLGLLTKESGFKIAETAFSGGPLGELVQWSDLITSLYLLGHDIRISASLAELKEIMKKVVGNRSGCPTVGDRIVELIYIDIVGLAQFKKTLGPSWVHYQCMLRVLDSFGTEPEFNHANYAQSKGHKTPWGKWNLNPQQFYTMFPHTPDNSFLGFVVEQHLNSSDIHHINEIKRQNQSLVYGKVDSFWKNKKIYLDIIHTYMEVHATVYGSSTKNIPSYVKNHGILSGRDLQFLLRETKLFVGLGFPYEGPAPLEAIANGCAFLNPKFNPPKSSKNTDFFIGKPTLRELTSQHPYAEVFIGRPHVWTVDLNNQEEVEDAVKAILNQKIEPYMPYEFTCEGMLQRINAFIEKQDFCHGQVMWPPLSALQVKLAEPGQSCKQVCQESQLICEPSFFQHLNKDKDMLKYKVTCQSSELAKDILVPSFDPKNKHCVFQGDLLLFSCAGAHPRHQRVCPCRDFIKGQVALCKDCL
As to conditions: cited from earlier work; for Kd: GnT-V, known binding constant.

The structures appear in SMILES notation.

As to `COC1O[C@H](CO)[C@@H](O)[C@H](O)[C@@H]1O` (stereo partly drawn) [AMM, α-methyl mannoside], the “fraction of AMM bound to MBP” value in assay [1] was “approximately 40%”. Also, in assay [2], the Kd is approximately 1 mM. As for `O=c1ccn([C@@H]2O[C@H](COP(=O)(O)OP(=O)(O)O)[C@@H](O)[C@H]2O)c(=O)[nH]1` [UDP, uridine diphosphate], in assay [3], the Kd was 1.1 mM and the “type of inhibition of GnT-V” value is “competitive inhibitor”.

Consider `CC(=O)N[C@H]1[C@@H](OP(=O)(O)OP(=O)(O)OC[C@H]2O[C@@H](n3ccc(=O)[nH]c3=O)[C@H](O)[C@@H]2O)O[C@H](CO)[C@@H](O)[C@@H]1O` [UDP-GlcNAc], for which, in assay [3], the Kd was 1.1 mM.
